# Reference: ChEMBL document CHEMBL1914387, “Combining symmetry elements results in potent naphthyridinone (NTD) HIV-1 integrase inhibitors” (Bioorg Med Chem Lett, 2011)
# Experiments:
# [1] = Therapeutic index, ratio of CC50 for human 293T cells to EC50 for HIV1; format: cell-based; settings: read-out: Ratio CC50/EC50
# [2] = target: Human immunodeficiency virus type 1 integrase (Human immunodeficiency virus 1, UniProt Q7ZJM1); assay: Inhibition of HIV1 integrase strand transfer by biochemical assay
# Human immunodeficiency virus type 1 integrase, sequence (Q7ZJM1 whole entry): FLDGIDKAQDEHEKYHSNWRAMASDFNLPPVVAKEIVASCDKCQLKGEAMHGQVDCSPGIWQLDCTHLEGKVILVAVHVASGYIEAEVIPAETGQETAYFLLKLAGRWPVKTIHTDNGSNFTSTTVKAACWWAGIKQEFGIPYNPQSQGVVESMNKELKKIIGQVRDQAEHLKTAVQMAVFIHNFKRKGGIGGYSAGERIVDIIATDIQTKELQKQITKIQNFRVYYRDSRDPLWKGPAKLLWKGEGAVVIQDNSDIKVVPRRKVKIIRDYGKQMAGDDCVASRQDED
# [3] = tested on: Human immunodeficiency virus 1; assay: Antiviral activity against pseudo HIV1 infected in human 293T cells after 2 days by luciferase reporter gene assay; format: functional, organism-based; settings: Human immunodeficiency virus 1, HEK-293T, 48 h
# [4] = tested on: Human immunodeficiency virus 1; assay: Antiviral activity against HIV1 Ba-L infected in human PBMC cells assessed as inhibition of viral replication after 7 days by [methyl-3H]dTTP incorporation assay; format: functional, organism-based; settings: Human immunodeficiency virus 1, Ba-L, 168 h
# [5] = Selectivity index, ratio of CC50 for human MT4 cells to EC50 for HIV13B; format: toxicity, cell-based; settings: read-out: Ratio CC50/EC50
# [6] = tested on: Human immunodeficiency virus 1; assay: Antiviral activity against pseudo HIV1 infected in human 293T cells after 2 days by luciferase reporter gene assay in presence of human serum albumin; format: functional, organism-based; settings: Human immunodeficiency virus 1, HEK-293T, 48 h
# [7] = tested on: Human immunodeficiency virus 1; assay: Antiviral activity against HIV1 3B infected in human MT4 cells assessed as inhibition of viral replication after 4-5 days by bioluminescence assay; format: functional, organism-based; settings: Human immunodeficiency virus 1, 3B
# [8] = tested on: Human immunodeficiency virus 1; assay: Ratio of EC50 for pseudo HIV1 infected in human 293T cells in presence of human serum albumin to EC50 for pseudo HIV1 infected in human 293T cells; format: functional
Compound,selectivity ratio [1],IC50 [2] [nM],EC50 [3] [nM],EC50 [4] [nM],selectivity ratio [5],EC50 [6] [nM],EC50 [7] [nM],Ratio EC50 [8]
O=C(NCc1ccc(F)cc1Cl)c1c(O)c2ncc(Cc3ccccc3)cc2[nH]c1=O,117,35,120,–,–,–,–,–
O=C(NCc1ccc(F)cc1)c1c(O)c2ncc(Cc3ccc(F)cc3)cc2n(CCN2CCCC2=O)c1=O,5600,14,3,11,> 400,140,20,–
COc1cccc(CNC(=O)c2c(O)c3ncc(Cc4ccc(F)cc4)cc3[nH]c2=O)c1,1050,10,13,–,–,460,–,–
O=C(NCc1ccc(F)cc1)c1c(O)c2ncc(Cc3ccccc3)cc2n(CC2CC2)c1=O,465,34,30,–,–,730,–,–
O=C(NCc1ccc(F)cc1)c1c(O)c2ncc(Cc3ccccc3)cc2n(CCN2CCCC2=O)c1=O,1770,32,8,–,–,290,–,–
O=C(NCc1ccc(F)cc1)c1c(O)c2ncc(Cc3ccc(F)cc3)cc2n(CC(=O)N2CCOCC2)c1=O,2880,8,3,–,347,45,15,–
COc1ccccc1CNC(=O)c1c(O)c2ncc(Cc3ccc(F)cc3)cc2[nH]c1=O,1540,6,9,–,–,330,–,–
O=C(NCc1ccc(F)cc1)c1c(O)c2ncc(Cc3ccc(F)cc3)cc2n(CC(=O)N2CCCCC2)c1=O,171,19,26,–,–,220,–,10
CC(NC(=O)c1c(O)c2ncc(Cc3ccccc3)cc2[nH]c1=O)c1ccccc1 (centres undefined),79,20,65,–,–,360,–,–
COc1ccc(CNC(=O)c2c(O)c3ncc(Cc4ccc(F)cc4)cc3[nH]c2=O)cc1,1730,7,7,–,–,440,–,–
O=C(NCc1ccc(F)cc1C(F)(F)F)c1c(O)c2ncc(Cc3ccccc3)cc2[nH]c1=O,90,32,39,–,–,480,–,–
Cn1c(=O)c(C(=O)NCc2ccc(F)cc2)c(O)c2ncc(Cc3ccc(F)cc3)cc21,1710,17,8,–,453,530,66,–
Nc1ccc(Cn2c(=O)c(C(=O)NCc3ccc(F)cc3)c(O)c3ncc(Cc4ccccc4)cc32)cc1,1130,28,12,–,–,140,–,12
CN(C)C(=O)Cn1c(=O)c(C(=O)NCc2ccc(F)cc2)c(O)c2ncc(Cc3ccc(F)cc3)cc21,1150,4,10,–,–,130,–,10
CS(=O)(=O)c1ccc(Cn2c(=O)c(C(=O)NCc3ccc(F)cc3)c(O)c3ncc(Cc4ccccc4)cc32)cc1,1430,28,9,–,–,230,–,25
CCCn1c(=O)c(C(=O)NCc2ccc(F)cc2)c(O)c2ncc(Cc3ccccc3)cc21,99,18,70,–,–,640,–,–
COc1ccc(CNC(=O)c2c(O)c3ncc(Cc4ccc(F)cc4)cc3[nH]c2=O)cc1OC,680,8,21,–,–,1100,–,–
O=C(NCc1ccc(F)cc1)c1c(O)c2ncc(Cc3ccccc3)cc2[nH]c1=O,711,13,19,–,108,430,37,–
O=C(NCc1ccc(F)cc1)c1c(O)c2ncccc2n(C2CCCC2)c1=O,79,6,110,–,–,1540,–,14
CC(C)n1c(=O)c(C(=O)NCc2ccc(F)cc2)c(O)c2ncccc21,30,1,400,–,–,–,–,–
O=C(NCc1ccc(F)cc1)c1c(O)c2ncccc2[nH]c1=O,87,13,110,–,–,–,–,–
O=C(NCc1ccc(F)cc1)c1c(O)c2ncc(Cc3ccc(F)cc3)cc2[nH]c1=O,1730,6,8,–,–,280,–,–
